Measured values: patent US5538834A, “Blocked photographically useful compounds for use with peroxide-containing processes” (Eastman Kodak Company, priority 1994, dated 1996)

Columns and labels:
Type in all cases: physicochemical
[1] = Thermal stability: retained blocked developing agent by HPLC after incubation (Examples 3-5); conditions: 1 week at 100° F. and 50% relative humidity, 10080 min
Protocol: Blocked p-phenylenediamine developing agents 1, 3 and 6 were incorporated in photographic elements and evaluated for image dye formation activity and stability under storage conditions. The photographic elements were prepared as follows. The developing agents were dissolved in a high vapor pressure organic solvent (ethyl acetate for compounds 1 and 6, cyclohexanone for compound 3). The solutions were subsequently emulsified in aqueous gelatin using Alkanol-XC (Du Pont) as a dispersing aid. The dispersions were formulated such that the developing agents were initially present at 3% by weight, gelatin at 4% by weight and Alkanol-XC at 0.4% by weight. The initial slurries were emulsified by passing the mixtures through a colloid mill using known procedures. The organic solvents were then removed by evaporation.
Sets of strips were incubated for 1 week at 100° F. and 50% relativ humidity, and then evaluated by high performance liquid chromatography for amount of retained blocked developing agent. Sensitometry was obtained for step-tablet white-light exposures by contacting the strips with an activator solution at 77° F. The activator solution had the following composition:
The imaging activity and thermal stability of the exemplary blocked developing agents are given in Table V. The thermal stability denotes the percent retention, that is, the relative amount of blocked developing agent remaining after incubation, relative to the amount of developing agent initially coated.

[2] = Deblocking / dye release from ballasted blocked filter dye coating in alkaline buffer flow cell (Example 2); conditions: for % reaction after 400 sec.: 6.66667 min
Protocol: DOC Gelatin (2700 mg/m^2)
FILTER DYE LAYER Gelatin (3780 mg/m^2)
bis(vinylsulfonylmethyl)ether
FILMBASE polyacetate-butyrate
Coating strips were suspended in a flow cell while alkaline buffer solutions at 40° C. were passed through it. As deblocking proceeded, the yellow color of the strips was reduced as the water-solublefilter dye was released and washed out of the film.

[3] = Accelerated keeping test of coatings, raw stock stability (Example 2); conditions: 2 weeks at 50° C. and 50% relative humidity; 20160 min
Source text: Coatings containing compound 32 as described above were also subjected to accelerated keeping tests to determine raw stock stability.

[4] = Ester cleavage rate in solution without and with hydrogen peroxide (Example 1); conditions: pH 10 solution, 25° C., 5% CH3CN aqueous solution
Protocol: ^a 5% CH3 CN aqueous solution
nonionic surfactant micellar solution
^c pH 10 solution, 25° C.

Compound `CCN(CCNS(C)(=O)=O)c1ccc(NC(=O)OCc2ccc(OC(=O)C(C)(C)C)c(NS(C)(=O)=O)c2)c(C)c1` [compound 1] has a Retention [1] of 100%.
Work on `CCN(CCNS(C)(=O)=O)c1ccc(NC(=O)OCc2ccc(OC(=O)C(C)C)c(NC(=O)CCCC(=O)O)c2)c(C)c1` [compound 3] yielded a Retention [1] of 98%.
For `CCC(=O)Oc1ccc(COC(=O)Nc2ccc(N(CC)CCNS(C)(=O)=O)cc2C)cc1NC(=O)c1ccc(NS(C)(=O)=O)cc1` [compound 6], the Retention [1] was 100%.
For `CCCCCCCCCCCCCCCCS(=O)(=O)Nc1ccc(C(=O)Nc2cc(COC(=O)Nc3cc(N(C)C)ccc3N=Nc3cccc(C(=O)O)c3)ccc2OC(=O)CC)cc1` [compound 32], the t1/2 ([2]; pH 10, 0.2 N H2O2, 40° C.) was 3.67 min, the “% reaction after 400 sec.” value ([2]; pH 10, 0.2 N H2O2, 40° C.) was 77% and the t1/2 ([2]; pH 10, no H2O2, 40° C.) was “very long”. The “% reaction after 400 sec.” value ([2]; pH 10, no H2O2, 40° C.) was 3%, the t1/2 ([2]; pH 10.7, 0.2 N H2O2, 40° C.) was 1.17 min and the “% reaction after 400 sec.” value ([2]; pH 10.7, 0.2 N H2O2, 40° C.) was 100%. For the same compound, the t1/2 ([2]; pH 10.7, no H2O2, 40° C.) was 13 min, the “% reaction after 400 sec.” value ([2]; pH 10.7, no H2O2, 40° C.) was 31% and the recovery after storage [3] was “greater than 93%”.
In the case of `CC(C)(C)C(=O)Oc1ccc([N+](=O)[O-])cc1` [p-nitrophenyl pivalate], the “t1/2, 0.1M H2O2” value ([4]; 0.1M H2O2) is reported as 0.0113 min and the “t1/2, no H2O2” value ([4]; no H2O2) is reported as 95 min.
